From patent US12583866B2, “Pyrido[2,3-b][1,4]oxazines or tetrahydropyrido[2,3-b][1,4]oxazepines as IAP antagonists” (BEIGENE, LTD., priority 2020, dated 2026)

Tests used:
[1] = target: T1, recombinant human cIAP1-BIR3 protein (Homo sapiens, UniProt Q13490); assay: Recombinant human c-IAP1-BIR3 biochemical assay (HTRF, peptide displacement); details: 1.2 nM cIAP1-BIR3, 3 nM AbuRPF-K(5-Fam)-NH2 peptide, read-out: Protein binding IC50 (nM) c-IAP1
T1 construct: recombinant human cIAP1-BIR3 protein; purchased Reaction biology APT-11-370
Protocol: I. Recombinant human c-IAP1-BIR3 biochemical assay
(§1) Compounds disclosed herein were tested for blocking of recombinant human cIAP1-BIR3 protein (Cat: APT-11-370, Reaction biology) with its peptide in an assay based on Homogeneous Time Resolved Fluorescence. 1.2 nM recombinant human cIAP1-BIR3 protein was pre-incubated with a serial dilution of compounds disclosed herein (maximum concentration is 10 uM, 4-fold serially diluted, 10 points) at room temperature for 1 hour in an assay buffer containing 20 mM HEPES, pH 7.5, 50 mM NaCl, 0.005% Tween-20, 1 mM DTT. Then 3 nM AbuRPF-K (5-Fam)-NH2 (Cat: 709702, GL Biochem) was added to plate incubated at room temperature for 1 hour. Mab Anti-6His Tb cryptate Gold (Cat: 61HI2TLB, Cisbio Bioassays) was added to plate and further incubated at room temperature for 1 hour. The HTRF signals (ex337 nm, em520 nm/490 nm) were read on BMG PHERAstar FS instrument. The inhibition percentage of cIAP1-BIR3 interaction with its peptide in presence of increasing concentrations of compounds was calculated based on the ratio of fluorescence at 520 nm to that at 490 nm. The IC50 for each compound was derived from fitting the data to the four-parameter logistic equation by Dotmatics and summarized in table 1.

[2] = target: T2, recombinant human cIAP2-BIR3 protein (Homo sapiens, UniProt Q13489); assay: Recombinant human c-IAP2-BIR3 biochemical assay (HTRF, peptide displacement); details: 3.7 nM cIAP2-BIR3, 3.7 nM AbuRPF-K(5-Fam)-NH2 peptide, read-out: Protein binding IC50 (nM) c-IAP2
T2 construct: recombinant human cIAP2-BIR3 protein; purchased Reaction biology APT-11-372
Protocol: II. Recombinant Human c-IAP2-BIR3 Biochemical Assay
as §1, with “human cIAP2-BIR3” for “human cIAP1-BIR3”, “(Cat: APT-11-372,” for “(Cat: APT-11-370,”, “Fluorescence. 3.7” for “Fluorescence. 1.2”, “Then 3.7” for “Then 3”, “nM AbuRPF-K(5-Fam)-NH2” for “nM AbuRPF-K (5-Fam)-NH2”, “of cIAP2-BIR3” for “of cIAP1-BIR3”

[3] = target: T3, recombinant human XIAP-BIR3 protein (Homo sapiens, UniProt P98170); assay: Recombinant human XIAP-BIR3 biochemical assay (HTRF, peptide displacement); details: 3.7 nM XIAP-BIR3, 7.6 nM AbuRPF-K(5-Fam)-NH2 peptide, read-out: Protein binding IC50 (nM) XIAP
T3 construct: recombinant human XIAP-BIR3 protein; purchased Reaction biology APT-11-374
Protocol: III. Recombinant Human XIAP-BIR3 Biochemical Assay
as §1, with “human XIAP-BIR3” for “human cIAP1-BIR3”, “(Cat: APT-11-374,” for “(Cat: APT-11-370,”, “Fluorescence. 3.7” for “Fluorescence. 1.2”, “Then 7.6” for “Then 3”, “nM AbuRPF-K(5-Fam)-NH2” for “nM AbuRPF-K (5-Fam)-NH2”, “of XIAP-BIR3” for “of cIAP1-BIR3”

T3 sequence (P98170 241-356 limits assumed): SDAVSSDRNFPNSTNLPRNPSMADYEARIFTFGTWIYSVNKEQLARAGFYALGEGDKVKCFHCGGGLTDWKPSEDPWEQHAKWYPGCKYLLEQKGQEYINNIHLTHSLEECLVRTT
T1 sequence (Q13490 253-363 limits assumed): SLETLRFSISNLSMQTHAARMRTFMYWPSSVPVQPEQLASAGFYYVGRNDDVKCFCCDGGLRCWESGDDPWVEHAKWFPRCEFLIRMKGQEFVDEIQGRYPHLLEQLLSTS
T2 sequence (Q13489 238-349 limits assumed): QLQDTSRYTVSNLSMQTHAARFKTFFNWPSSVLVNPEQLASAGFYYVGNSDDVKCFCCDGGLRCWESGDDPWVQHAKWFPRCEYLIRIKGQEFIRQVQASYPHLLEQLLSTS

| SMILES | IC50 [1] [nM] | IC50 [2] [nM] | IC50 [3] [nM] |
| --- | --- | --- | --- |
| C[C@@H]1CN(CC(=O)N2CCOc3nc(CO)c(Cc4ccc(F)cc4)cc32)[C@@H](CN2CCOC[C@H]2C)CN1 [Compound 8, 1-(7-(4-fluorobenzyl)-6-(hydroxymethyl)-2,3-dihydro-1H-pyrido[2,3-b][1,4]oxazin-1-yl)-2-((2R,5R)-5-methyl-2-(((R)-3-methylmorpholino)methyl)piperazin-1-yl)ethan-1-one] | 1 | 2.9 | 45 |
| CCOc1nc2c(cc1Cc1ccc(F)cc1)N(C(=O)CN1C[C@@H](C)NC[C@@H]1CN1[C@H](C)COC[C@H]1C)[C@@H](C)CO2 [Compound 87] | 0.18 | 0.23 | 3.3 |
| C[C@@H]1CN(CC(=O)N2c3cc(Cc4ccc(F)cc4)cnc3OC[C@@H]2C2CCCCC2)[C@@H](CN2[C@H](C)COC[C@H]2C)CN1 [Compound 43, 1-((S)-2-cyclohexyl-7-(4-fluorobenzyl)-2,3-dihydro-1H-pyrido[2,3-b][1,4]oxazin-1-yl)-2-((2R,5R)-2-(((3R,5R)-3,5-dimethylmorpholino)methyl)-5-methylpiperazin-1-yl)ethan-1-one] | 0.23 | 0.27 | 23 |
| CC(C)[C@H]1COc2ncc(Cc3ccc(F)cc3)cc2N1C(=O)CN1C[C@@H](C)NC[C@@H]1CN1[C@H](C)COC[C@H]1C [Compound 46, 2-((2R,5R)-2-(((3R,5R)-3,5-dimethylmorpholino)methyl)-5-methylpiperazin-1-yl)-1-((S)-7-(4-fluorobenzyl)-2-isopropyl-2,3-dihydro-1H-pyrido[2,3-b][1,4]oxazin-1-yl)ethan-1-one] | 0.24 | 0.47 | 63 |
| C[C@@H]1CN(CC(=O)N2c3cc(Cc4ccc(F)cc4)c(OCCO)nc3OC[C@@H]2C)[C@@H](CN2[C@H](C)COC[C@H]2C)CN1 [Compound 107] | 0.23 | 0.41 | 4.4 |
| CCNc1nc2c(cc1Cc1ccc(F)cc1)N(C(=O)CN1C[C@@H](C)NC[C@@H]1CN1[C@H](C)COC[C@H]1C)[C@@H](C)CO2 [Compound 111, 2-((2R,5R)-2-(((3R,5R)-3,5-dimethylmorpholino)methyl)-5-methylpiperazin-1-yl)-1-((S)-6-(ethylamino)-7-(4-fluorobenzyl)-2-methyl-2,3-dihydro-1H-pyrido[2,3-b][1,4]oxazin-1-yl)ethan-1-one] | 0.25 | 0.7 | 13.9 |
| Cc1ccc([C@H]2COc3ncc(Cc4ccc(F)cc4)cc3N2C(=O)CN2C[C@@H](C)NC[C@@H]2CN2CCOC[C@H]2C)cc1 [Compound 30, 1-((S)-7-(4-fluorobenzyl)-2-(p-tolyl)-2,3-dihydro-1H-pyrido[2,3-b][1,4]oxazin-1-yl)-2-((2R,5R)-5-methyl-2-(((R)-3-methylmorpholino)methyl)piperazin-1-yl)ethan-1-one] | 0.35 | 0.72 | 7.3 |
| C[C@@H]1CN(CC(=O)N2c3cc(Cc4ccc(F)cc4F)c(CO)nc3OC[C@@H]2C)[C@@H](CN2[C@H](C)COC[C@H]2C)CN1 [Example 60, 1-((S)-7-(2,4-difluorobenzyl)-6-(hydroxymethyl)-2-methyl-2,3-dihydro-1H-pyrido[2,3-b][1,4]oxazin-1-yl)-2-((2R,5R)-2-(((3R,5R)-3,5-dimethylmorpholino)methyl)-5-methylpiperazin-1-yl)ethan-1-one] | 0.13 | 0.34 | 7.5 |
| CC1CN(C(=O)CN2C[C@@H](C)NC[C@@H]2CN2CCOC[C@H]2C)c2cc(Cc3ccc(F)cc3)c(Br)nc2O1 (stereo partly drawn) [Compound 11, 1-(6-bromo-7-(4-fluorobenzyl)-3-methyl-2,3-dihydro-1H-pyrido[2,3-b][1,4]oxazin-1-yl)-2-((2R,5R)-5-methyl-2-(((R)-3-methylmorpholino)methyl)piperazin-1-yl)ethan-1-one] | 8 | 17 | 220 |

Now from value to compound:

| IC50 [1] [nM] | IC50 [2] [nM] | IC50 [3] [nM] | SMILES |
| --- | --- | --- | --- |
| 0.45 | 0.79 | 12 | C[C@@H]1CN(CC(=O)N2c3cc(Cc4ccc(F)cc4)c(CO)nc3OC[C@@H]2C)[C@@H](CN2CCOCC2(C)C)CN1 [Compound 48] |
| 0.16 | 0.24 | 4.3 | CC(=O)Nc1nc2c(cc1Cc1ccc(F)cc1)N(C(=O)CN1C[C@@H](C)NC[C@@H]1CN1[C@H](C)COC[C@H]1C)[C@@H](C)CO2 [Compound 116] |
| 0.16 | 0.37 | 3.7 | CC(C)NC(=O)c1nc2c(cc1Cc1ccc(F)cc1)N(C(=O)CN1C[C@@H](C)NC[C@@H]1CN1[C@H](C)COC[C@H]1C)[C@@H](C)CO2 [Example 69, (S)-1-(2-((2R,5R)-2-(((3R,5R)-3,5-dimethylmorpholino)methyl)-5-methylpiperazin-1-yl)acetyl)-7-(4-fluorobenzyl)-N-isopropyl-2-methyl-2,3-dihydro-1H-pyrido[2,3-b][1,4]oxazine-6-carboxamide] |
| 0.23 | 0.41 | 5.5 | CNC(=O)c1nc2c(cc1Cc1ccc(F)cc1)N(C(=O)CN1C[C@@H](C)NC[C@@H]1CN1[C@H](C)COC[C@H]1C)[C@@H](C)CO2 [Example 68, (S)-1-(2-((2R,5R)-2-(((3R,5R)-3,5-dimethylmorpholino)methyl)-5-methylpiperazin-1-yl)acetyl)-7-(4-fluorobenzyl)-N,2-dimethyl-2,3-dihydro-1H-pyrido[2,3-b][1,4]oxazine-6-carboxamide] |
| 0.17 | 0.28 | 6.9 | C[C@@H]1CN(CC(=O)N2c3cc(Cc4ccc(F)cc4)c(N)nc3OC[C@@H]2C)[C@@H](CN2[C@H](C)COC[C@H]2C)CN1 [Compound 115, 1-((S)-6-amino-7-(4-fluorobenzyl)-2-methyl-2,3-dihydro-1H-pyrido[2,3-b][1,4]oxazin-1-yl)-2-((2R,5R)-2-(((3R,5R)-3,5-dimethylmorpholino)methyl)-5-methylpiperazin-1-yl)ethan-1-one] |
| 0.29 | 0.44 | 6.4 | C[C@@H]1CN(CC(=O)N2c3cc(Cc4ccc(F)cc4)c(CO)nc3OC[C@@H]2C)[C@@H](CN2CCOC[C@H]2C2CC2)CN1 [Example 84A, 2-((2R,5R)-2-(((R)-3-cyclopropylmorpholino)methyl)-5-methylpiperazin-1-yl)-1-((S)-7-(4-fluorobenzyl)-6-(hydroxymethyl)-2-methyl-2,3-dihydro-1H-pyrido[2,3-b][1,4]oxazin-1-yl)ethan-1-one] |
| 0.43 | 1.08 | 14 | C[C@@H]1CN(CC(=O)N2c3cc(Cc4ccc(F)cc4)c(C(N)=O)nc3OC[C@@H]2C)[C@@H](CN2CCOCC2(C)C)CN1 [Example 61, (S)-1-(2-((2R,5R)-2-((3,3-dimethylmorpholino)methyl)-5-methylpiperazin-1-yl)acetyl)-7-(4-fluorobenzyl)-2-methyl-2,3-dihydro-1H-pyrido[2,3-b][1,4]oxazine-6-carboxamide] |
